Data reported in patent US4737519A, “Substituted naphthalenes, indoles, benzofurans, and benzothiophenes as lipoxygenase inhibitors” (The Upjohn Company, priority 1986, dated 1988).

Legend:
trachealis muscle = experiment: isometric tension of the trachealis muscle in dogs; type: in vivo, mongrel dogs; conditions: 1.0 mg in the CTA
Procedure: (§1) Isometric tension measurements of the trachealis muscle were recorded by suturing a rigid, plastic bar to the (15) cartilaginous rings of the cut edges of the trachea, and connecting one side to a fixed restraint and the contralateral side to a force displacement transducer (Grass, Model FT 03C). An initial tension of 25-30 g/cm of trachea was applied to the muscle, and it was allowed to stabilize for 45 min. An initial zero tension point was determined before agonists were injected into the CTA, and the zero was readjusted after agonist injections.
When drug activity was assessed with arachidonic acid induced secretion, the animals were pretreated with indomethacin (Indo) (5 mg/kg) for at least 30 minutes. Before any drugs were given, however, the appropriate controls for arachidonate and indomethacin were run. The standard procedure for this was to determine the effect of (1) arachidonate alone, (2) indomethacin alone, and (3) indomethacin/arachidonate combination on normal baseline secretion. Once these control values were acquired, the drug was given. An experimental drug given in the presence of the indomethacin/arachidonate combination helps to characterize that portion of the response due to lipoxygenase products. […] Hillocks were counted for 2-3 minutes immediately after the arachidonate was given.

human airways = conditions: in vitro; cited from earlier work
mucous secretion = experiment: canine tracheal mucous secretion (hillock count); type: in vivo, mongrel dogs; conditions: 1.0 mg in the CTA
Procedure: Mongrel dogs (weight 18-35 kg) were anesthetized with a mixture of chloralose (100 mg/kg) and urethane (500 mg/kg) via intravenous injection. The animals were secured to a surgery table, ventral side up, and the neck and inner right hind limb were shaved. A ventral midline incision was made in the neck using a Bovie CSVII electrosurgical unit, starting from the papillae (interramal) to the clavicle thus exposing the trachea. An endotracheal tube was secured into the lower trachea. The animals were then connected via the endotracheal tube to a Harvard respirator (Model 607A) that delivered room air at a constant tidal volume and frequency. Two polyethylene catheters were connected to the endotracheal tube, and one was connected to a medical gas analyzer (Beckman, Model LB-2) that continuously measured the carbon dioxide (CO2) content of the expired air for determination of end tidal CO2. The other was connected to a pressure transducer (Statham, Model PMI 131TC+2.5-350) for the measurement of airway press ure.
A second incision made in the inner right hind limb to expose the femoral artery and vein was made for the catheterization of these large vessels. A polyethylene catheter was tied into the artery and connected to a pressure transducer (Statham, Model P231D) for the measurement of blood pressure. This catheter also allowed for samples of arterial blood to be collected for measurements of blood gas tension using a blood gas analyser (Corning, Model 175). Another polyethylene catheter was tied into the femoral vein which was used for injecting additional anesthetic and paralyzing drugs. Gallamine triethiodide (20-40 mg) was used to paralyze the respiratory muscles and a single injection of sodium bicarbonate 7.5% (0.5 mg/kg) in conjunction with a continuous i.v. drip of 5% dextrose in 0.9% saline helped to maintain fluid balance. All physiological measurements were recorded and monitored on a polygraph (Grass instruments, Model 7D). Once the femoral cutdown was completed, surgery on the neck region resumed. The carotid artery was exposed and the "knuckle" (a portion of the carotid which bisects to supply blood flow to the trachea and neck muscles) was located. A small polyethylene catheter was then inserted into the muscular branch of the cranial thyroid artery (CTA). This allowed for close arterial injection of experimental agents. The strap muscles were removed and the mucosal surface of the trachea exposed by cutting along the anterior midline of the upper two-thirds of the extrathoracic trachea and pulling the cut edges widely apart. The exposed mucosa was checked for proper canulation by blanching and appropriate adjustments of the canula into the CTA were made until blanching was achieved.
as §1
To visualize secretions coming from the submucosal gland duct openings of the trachea, powdered tantalum, an inert metal (2-5 microns in size) was sprayed on the trachea until it formed a uniform layer over the mucosal surface. The tantalum itself did nothing to normal secretion, but prevented the normal ciliary dispersion of secretions from the gland duct openings; these secretions, therefore, caused elevations ("hillocks") in the tantalum layer. The number of hillocks formed in a 1.2 cm^2 field, 1-2 cm from the larynx, were counted and their images were recorded with a video camera (Hitachi CCTV, Model HV-17TU) mounted on a dissecting microscrope (Zeiss Ompi-1) with a beam splitter. […]

mucus release = conditions: in vivo in the cat; cited from earlier work
canine tracheas = conditions: in vivo; cited from earlier work

| SMILES | effect on the trachealis muscle (trachealis muscle) | release of mucus from human airways (human airways) | effect on mucus secretion (mucous secretion) | stimulating mucus release (mucus release) | release of mucus from canine tracheas (canine tracheas) |
| --- | --- | --- | --- | --- | --- |
| CCCCC/C=C\C/C=C\C/C=C\C/C=C\CCCC(=O)O [arachidonate, arachidonic acid] | slight stimulation followed by relaxation of the trachealis muscle | release mucus from human airway | stimulates mucus secretion | – | – |
| CCCCC/C=C\C\C=C/C=C/C=C/[C@@H](SC[C@H](NC(=O)CC[C@H](N)C(=O)O)C(=O)NCC(=O)O)[C@@H](O)CCCC(=O)O [LTC4, leukotriene C4] | – | increase the release of mucus | – | effective in stimulating mucus release in vivo in the cat | increase the release of mucus |
